Source: ChEMBL document CHEMBL4507281, “Data for DCP probe BI-4394” (2021)

How the values were obtained:
[1] = molecular target: Serine/threonine-protein kinase 35 (Homo sapiens) (UniProt Q8TDR2); conditions: Compound concentration 100.0 nM
[2] = molecular target: Serine/threonine-protein kinase 33 (Homo sapiens) (UniProt Q9BYT3); conditions: Compound concentration 100.0 nM
[3] = molecular target: NT-3 growth factor receptor (Homo sapiens) (UniProt Q16288); conditions: Compound concentration 100.0 nM
[4] = molecular target: Serine/threonine-protein kinase PAK 4 (Homo sapiens) (UniProt O96013); conditions: Compound concentration 100.0 nM
[5] = molecular target: Mitogen-activated protein kinase 4 (Homo sapiens) (UniProt P31152); conditions: Compound concentration 100.0 nM
[6] = molecular target: Mitogen-activated protein kinase kinase kinase kinase 1 (Homo sapiens) (UniProt Q92918); conditions: Compound concentration 100.0 nM
[7] = system: Mast/stem cell growth factor receptor Kit (Homo sapiens), P10721 [L576P]; conditions: Compound concentration 100.0 nM
Chain of Mast/stem cell growth factor receptor Kit (Homo sapiens), P10721 [L576P] (P10721 whole entry L576P): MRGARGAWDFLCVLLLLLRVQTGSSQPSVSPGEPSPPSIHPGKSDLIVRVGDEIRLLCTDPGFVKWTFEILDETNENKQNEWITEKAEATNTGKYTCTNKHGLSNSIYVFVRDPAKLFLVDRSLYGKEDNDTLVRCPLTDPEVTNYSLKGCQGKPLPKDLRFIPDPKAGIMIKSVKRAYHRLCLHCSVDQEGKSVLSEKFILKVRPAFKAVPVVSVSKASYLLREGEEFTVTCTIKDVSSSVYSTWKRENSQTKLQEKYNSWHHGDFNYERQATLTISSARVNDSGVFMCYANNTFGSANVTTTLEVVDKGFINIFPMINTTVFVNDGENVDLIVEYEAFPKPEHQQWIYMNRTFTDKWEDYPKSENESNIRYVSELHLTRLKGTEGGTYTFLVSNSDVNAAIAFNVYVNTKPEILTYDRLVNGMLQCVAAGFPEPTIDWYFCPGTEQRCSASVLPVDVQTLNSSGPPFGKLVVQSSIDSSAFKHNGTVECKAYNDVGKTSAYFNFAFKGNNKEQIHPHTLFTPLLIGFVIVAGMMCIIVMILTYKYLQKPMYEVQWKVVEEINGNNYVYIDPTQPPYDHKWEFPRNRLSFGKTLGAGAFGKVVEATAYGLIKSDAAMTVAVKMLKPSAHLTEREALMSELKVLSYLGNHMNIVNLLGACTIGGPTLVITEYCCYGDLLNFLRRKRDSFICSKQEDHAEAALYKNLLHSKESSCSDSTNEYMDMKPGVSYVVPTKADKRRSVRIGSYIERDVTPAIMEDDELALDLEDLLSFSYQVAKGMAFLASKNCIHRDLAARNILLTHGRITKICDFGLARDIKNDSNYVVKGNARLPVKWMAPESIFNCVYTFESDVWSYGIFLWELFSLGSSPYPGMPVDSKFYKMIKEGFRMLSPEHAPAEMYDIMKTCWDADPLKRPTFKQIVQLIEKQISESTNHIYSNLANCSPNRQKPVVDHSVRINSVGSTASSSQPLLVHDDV

[8] = molecular target: Vascular endothelial growth factor receptor 3 (Homo sapiens) (UniProt P35916); conditions: Compound concentration 100.0 nM
[9] = molecular target: cAMP-dependent protein kinase catalytic subunit PRKX (Homo sapiens) (UniProt P51817); conditions: Compound concentration 100.0 nM
[10] = molecular target: Homeodomain-interacting protein kinase 3 (Homo sapiens) (UniProt Q9H422); conditions: Compound concentration 100.0 nM
Chain of Homeodomain-interacting protein kinase 3 (Homo sapiens) (Q9H422 whole entry, looked up): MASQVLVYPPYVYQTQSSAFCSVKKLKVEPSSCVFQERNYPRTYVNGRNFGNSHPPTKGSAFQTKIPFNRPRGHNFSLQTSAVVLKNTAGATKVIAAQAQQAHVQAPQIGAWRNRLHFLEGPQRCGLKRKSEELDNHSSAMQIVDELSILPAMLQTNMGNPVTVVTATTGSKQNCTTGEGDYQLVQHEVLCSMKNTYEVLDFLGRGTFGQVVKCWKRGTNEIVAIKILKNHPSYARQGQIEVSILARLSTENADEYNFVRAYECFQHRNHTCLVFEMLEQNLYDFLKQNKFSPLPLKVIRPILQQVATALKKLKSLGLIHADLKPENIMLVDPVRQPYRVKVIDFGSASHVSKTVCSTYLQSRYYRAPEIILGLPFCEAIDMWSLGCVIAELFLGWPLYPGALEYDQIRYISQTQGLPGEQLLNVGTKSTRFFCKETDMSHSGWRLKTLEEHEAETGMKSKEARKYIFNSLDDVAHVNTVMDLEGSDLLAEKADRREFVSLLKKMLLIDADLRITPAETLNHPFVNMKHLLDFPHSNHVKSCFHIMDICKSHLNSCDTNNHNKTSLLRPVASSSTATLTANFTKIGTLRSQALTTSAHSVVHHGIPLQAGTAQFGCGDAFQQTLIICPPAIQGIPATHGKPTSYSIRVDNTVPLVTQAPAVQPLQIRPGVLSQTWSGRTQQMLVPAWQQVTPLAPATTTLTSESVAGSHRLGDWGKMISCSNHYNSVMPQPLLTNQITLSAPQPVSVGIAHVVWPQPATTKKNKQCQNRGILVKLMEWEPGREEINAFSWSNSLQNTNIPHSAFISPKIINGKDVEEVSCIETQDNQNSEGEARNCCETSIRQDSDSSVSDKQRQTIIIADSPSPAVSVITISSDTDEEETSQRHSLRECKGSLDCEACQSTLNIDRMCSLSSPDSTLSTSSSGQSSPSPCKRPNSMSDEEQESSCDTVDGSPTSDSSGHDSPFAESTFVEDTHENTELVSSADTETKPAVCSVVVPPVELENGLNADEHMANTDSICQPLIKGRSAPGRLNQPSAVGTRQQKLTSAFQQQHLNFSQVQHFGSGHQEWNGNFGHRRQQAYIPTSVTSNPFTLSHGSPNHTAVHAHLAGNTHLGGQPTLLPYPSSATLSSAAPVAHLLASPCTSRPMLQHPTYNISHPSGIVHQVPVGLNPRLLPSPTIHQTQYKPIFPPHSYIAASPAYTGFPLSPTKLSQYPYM

[11] = molecular target: G protein-coupled receptor kinase 4 (Homo sapiens) (UniProt P32298); conditions: Compound concentration 100.0 nM
[12] = molecular target: Insulin receptor-related protein (Homo sapiens) (UniProt P14616); conditions: Compound concentration 100.0 nM
Chain of Insulin receptor-related protein (Homo sapiens) (P14616 27-742 limits assumed): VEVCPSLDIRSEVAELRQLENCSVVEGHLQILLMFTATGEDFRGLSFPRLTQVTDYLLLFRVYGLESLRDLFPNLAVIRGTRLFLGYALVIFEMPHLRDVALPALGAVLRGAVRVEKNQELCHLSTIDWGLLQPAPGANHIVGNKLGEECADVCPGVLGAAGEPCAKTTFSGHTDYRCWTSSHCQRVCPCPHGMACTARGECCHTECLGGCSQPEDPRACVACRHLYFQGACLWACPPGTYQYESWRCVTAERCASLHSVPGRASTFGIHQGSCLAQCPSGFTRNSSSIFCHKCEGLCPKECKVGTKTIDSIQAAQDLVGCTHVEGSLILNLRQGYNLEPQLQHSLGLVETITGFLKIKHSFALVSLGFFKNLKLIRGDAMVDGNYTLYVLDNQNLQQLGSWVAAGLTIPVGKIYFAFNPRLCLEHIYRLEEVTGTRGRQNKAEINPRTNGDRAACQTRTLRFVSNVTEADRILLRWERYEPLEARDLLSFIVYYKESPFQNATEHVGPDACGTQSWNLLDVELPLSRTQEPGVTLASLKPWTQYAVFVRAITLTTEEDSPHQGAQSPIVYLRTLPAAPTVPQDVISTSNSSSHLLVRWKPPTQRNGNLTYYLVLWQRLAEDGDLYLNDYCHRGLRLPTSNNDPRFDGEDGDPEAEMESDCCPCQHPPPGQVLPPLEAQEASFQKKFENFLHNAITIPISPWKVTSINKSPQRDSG
Chain of Insulin receptor-related protein (Homo sapiens) (P14616 747-1297 limits assumed): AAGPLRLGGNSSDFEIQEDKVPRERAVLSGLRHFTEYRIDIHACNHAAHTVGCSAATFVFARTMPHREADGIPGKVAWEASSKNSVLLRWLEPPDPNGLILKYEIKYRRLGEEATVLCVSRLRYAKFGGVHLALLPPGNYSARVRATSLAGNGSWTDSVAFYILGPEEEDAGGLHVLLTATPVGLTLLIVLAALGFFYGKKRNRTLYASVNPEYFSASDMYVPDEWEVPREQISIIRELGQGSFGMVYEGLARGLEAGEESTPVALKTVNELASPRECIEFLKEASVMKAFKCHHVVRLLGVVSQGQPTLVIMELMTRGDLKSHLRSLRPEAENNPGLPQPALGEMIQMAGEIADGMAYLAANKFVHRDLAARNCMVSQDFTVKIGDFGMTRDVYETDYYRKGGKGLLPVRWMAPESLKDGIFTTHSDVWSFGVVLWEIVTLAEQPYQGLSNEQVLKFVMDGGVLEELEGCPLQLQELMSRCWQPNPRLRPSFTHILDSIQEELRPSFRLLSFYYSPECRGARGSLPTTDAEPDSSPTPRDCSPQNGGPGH

[13] = molecular target: Tyrosine-protein kinase ITK/TSK (Homo sapiens) (UniProt Q08881); conditions: Compound concentration 100.0 nM
[14] = system: Tyrosine-protein kinase ABL1 (Homo sapiens), P00519 [F317I]; conditions: Compound concentration 100.0 nM
[15] = molecular target: Serine/threonine-protein kinase MRCK gamma (Homo sapiens) (UniProt Q6DT37); conditions: Compound concentration 100.0 nM
[16] = molecular target: Activin receptor type-1 (Homo sapiens) (UniProt Q04771); conditions: Compound concentration 100.0 nM
[17] = molecular target: Casein kinase I isoform alpha (Homo sapiens) (UniProt P48729); conditions: Compound concentration 100.0 nM
[18] = molecular target: Mitogen-activated protein kinase kinase kinase 11 (Homo sapiens) (UniProt Q16584); conditions: Compound concentration 100.0 nM
[19] = system: Tyrosine-protein kinase ABL1 (Homo sapiens), P00519 [T315I]; conditions: Compound concentration 100.0 nM
[20] = molecular target: Membrane-associated tyrosine- and threonine-specific cdc2-inhibitory kinase (Homo sapiens) (UniProt Q99640); conditions: Compound concentration 100.0 nM
Chain of Membrane-associated tyrosine- and threonine-specific cdc2-inhibitory kinase (Homo sapiens) (Q99640 whole entry): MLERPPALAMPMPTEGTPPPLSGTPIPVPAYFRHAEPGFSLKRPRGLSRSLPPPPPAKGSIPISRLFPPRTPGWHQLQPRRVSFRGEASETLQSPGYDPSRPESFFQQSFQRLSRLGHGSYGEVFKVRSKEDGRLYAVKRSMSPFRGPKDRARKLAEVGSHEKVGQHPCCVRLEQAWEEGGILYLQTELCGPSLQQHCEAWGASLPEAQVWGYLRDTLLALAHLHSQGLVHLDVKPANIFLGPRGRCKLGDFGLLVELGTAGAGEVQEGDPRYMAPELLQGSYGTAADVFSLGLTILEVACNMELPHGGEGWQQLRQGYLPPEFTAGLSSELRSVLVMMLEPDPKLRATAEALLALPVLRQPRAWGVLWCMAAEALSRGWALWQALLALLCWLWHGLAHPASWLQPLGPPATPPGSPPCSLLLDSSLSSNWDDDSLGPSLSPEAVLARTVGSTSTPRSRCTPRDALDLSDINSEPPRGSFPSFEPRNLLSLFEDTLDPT

[21] = molecular target: 5-hydroxytryptamine receptor 2C (Homo sapiens) (UniProt P28335); conditions: Compound concentration 10.0 uM
[22] = molecular target: Serine/threonine-protein kinase Sgk3 (Homo sapiens) (UniProt Q96BR1); conditions: Compound concentration 100.0 nM
Chain of Serine/threonine-protein kinase Sgk3 (Homo sapiens) (Q96BR1 whole entry): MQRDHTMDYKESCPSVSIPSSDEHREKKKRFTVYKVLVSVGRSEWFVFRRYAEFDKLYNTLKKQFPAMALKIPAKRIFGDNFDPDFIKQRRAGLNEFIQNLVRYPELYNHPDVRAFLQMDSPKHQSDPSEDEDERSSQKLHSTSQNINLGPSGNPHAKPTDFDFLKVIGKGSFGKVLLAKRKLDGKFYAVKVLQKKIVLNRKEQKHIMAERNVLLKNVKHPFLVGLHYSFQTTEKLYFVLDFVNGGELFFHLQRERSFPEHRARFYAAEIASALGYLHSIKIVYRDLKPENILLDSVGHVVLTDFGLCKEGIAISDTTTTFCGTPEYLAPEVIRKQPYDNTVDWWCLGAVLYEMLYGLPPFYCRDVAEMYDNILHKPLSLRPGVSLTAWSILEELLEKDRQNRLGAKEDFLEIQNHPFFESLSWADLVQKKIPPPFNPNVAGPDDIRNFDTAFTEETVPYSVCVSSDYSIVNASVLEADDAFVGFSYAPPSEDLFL

[23] = molecular target: Glycogen synthase kinase-3 alpha (Homo sapiens) (UniProt P49840); conditions: Compound concentration 100.0 nM
[24] = molecular target: Protein kinase C theta type (Homo sapiens) (UniProt Q04759); conditions: Compound concentration 100.0 nM
[25] = system: Tyrosine-protein kinase ABL1 (Homo sapiens), P00519 [Y253F]; conditions: Compound concentration 100.0 nM
[26] = system: Epidermal growth factor receptor (Homo sapiens), P00533 [UNDEFINED MUTATION]; conditions: Compound concentration 100.0 nM
[27] = molecular target: Serine/threonine-protein kinase Sgk2 (Homo sapiens) (UniProt Q9HBY8); conditions: Compound concentration 100.0 nM
[28] = molecular target: SRSF protein kinase 3 (Homo sapiens) (UniProt Q9UPE1); conditions: Compound concentration 100.0 nM
[29] = molecular target: Mitogen-activated protein kinase kinase kinase kinase 2 (Homo sapiens) (UniProt Q12851); conditions: Compound concentration 100.0 nM
[30] = molecular target: Bone morphogenetic protein receptor type-1B (Homo sapiens) (UniProt O00238); conditions: Compound concentration 100.0 nM
[31] = molecular target: Death-associated protein kinase 3 (Homo sapiens) (UniProt O43293); conditions: Compound concentration 100.0 nM
Chain of Death-associated protein kinase 3 (Homo sapiens) (O43293 whole entry, looked up): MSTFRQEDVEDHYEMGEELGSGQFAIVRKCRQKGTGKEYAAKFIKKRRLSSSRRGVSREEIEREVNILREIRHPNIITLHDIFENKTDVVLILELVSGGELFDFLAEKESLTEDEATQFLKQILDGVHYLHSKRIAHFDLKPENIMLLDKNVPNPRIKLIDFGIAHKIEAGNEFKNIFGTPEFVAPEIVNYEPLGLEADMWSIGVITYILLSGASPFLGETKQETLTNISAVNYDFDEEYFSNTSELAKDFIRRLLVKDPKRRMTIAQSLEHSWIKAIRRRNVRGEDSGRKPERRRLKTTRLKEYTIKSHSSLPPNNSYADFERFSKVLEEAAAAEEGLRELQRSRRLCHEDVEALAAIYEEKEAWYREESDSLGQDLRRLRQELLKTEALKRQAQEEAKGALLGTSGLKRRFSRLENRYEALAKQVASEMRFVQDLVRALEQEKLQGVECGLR

[32] = molecular target: Mitogen-activated protein kinase 8 (Homo sapiens) (UniProt P45983); conditions: Compound concentration 100.0 nM
[33] = molecular target: Non-receptor tyrosine-protein kinase TYK2 (Homo sapiens) (UniProt P29597); conditions: Compound concentration 100.0 nM
[34] = molecular target: Tyrosine-protein kinase FRK (Homo sapiens) (UniProt P42685); conditions: Compound concentration 100.0 nM
[35] = molecular target: T1, Protein kinase C epsilon type (Homo sapiens) (UniProt Q02156); conditions: Compound concentration 100.0 nM
T1 sequence (whole entry): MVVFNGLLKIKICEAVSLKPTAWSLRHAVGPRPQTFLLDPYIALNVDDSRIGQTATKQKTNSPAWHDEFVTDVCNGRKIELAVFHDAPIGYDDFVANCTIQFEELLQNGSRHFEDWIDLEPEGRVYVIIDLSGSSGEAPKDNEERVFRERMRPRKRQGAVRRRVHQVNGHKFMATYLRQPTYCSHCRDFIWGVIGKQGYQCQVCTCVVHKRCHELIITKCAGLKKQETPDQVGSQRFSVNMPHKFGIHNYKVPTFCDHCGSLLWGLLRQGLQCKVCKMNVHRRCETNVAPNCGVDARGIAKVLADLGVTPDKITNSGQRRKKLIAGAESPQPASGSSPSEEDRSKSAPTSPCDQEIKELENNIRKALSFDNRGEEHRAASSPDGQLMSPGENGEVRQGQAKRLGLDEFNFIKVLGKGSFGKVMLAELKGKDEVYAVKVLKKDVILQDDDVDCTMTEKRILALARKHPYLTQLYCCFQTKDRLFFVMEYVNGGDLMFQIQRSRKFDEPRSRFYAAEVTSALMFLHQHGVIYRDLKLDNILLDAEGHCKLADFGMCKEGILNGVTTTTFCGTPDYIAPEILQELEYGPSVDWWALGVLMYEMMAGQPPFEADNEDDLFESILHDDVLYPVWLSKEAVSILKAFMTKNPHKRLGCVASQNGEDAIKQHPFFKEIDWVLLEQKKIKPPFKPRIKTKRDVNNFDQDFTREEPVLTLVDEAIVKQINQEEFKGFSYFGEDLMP

Structure (SMILES)	residual activity [1] [%]	residual activity [2] [%]	residual activity [3] [%]	residual activity [4] [%]	residual activity [5] [%]	residual activity [6] [%]	residual activity [7] [%]	residual activity [8] [%]	residual activity [9] [%]	residual activity [10] [%]	residual activity [11] [%]	residual activity [12] [%]	residual activity [13] [%]	residual activity [14] [%]	residual activity [15] [%]	residual activity [16] [%]	residual activity [17] [%]	residual activity [18] [%]	residual activity [19] [%]	residual activity [20] [%]	other results
CCOC(=O)c1cc2cc(-c3cc(C(=O)NCc4ccc(C(=O)O)cc4)nn3C)ccc2[nH]1 [BI 4394]	94	100	94	100	86	100	100	97	100	81	100	77	100	80	93	84	88	88	83	100	inhibition [21]: 3.56%; residual activity [22]: 82%; residual activity [23]: 100%; residual activity [24]: 97%; residual activity [25]: 93%; residual activity [26]: 100%; residual activity [27]: 100%; residual activity [28]: 100%; residual activity [29]: 84%; residual activity [30]: 96%; residual activity [31]: 98%; residual activity [32]: 96%; residual activity [33]: 90%; residual activity [34]: 100%; residual activity [35]: 90%
Cn1nc(C(=O)NCc2ccc(C(=O)O)cc2)cc1-c1ccc2[nH]ccc2c1 [BI 4395]	94	87	89	86	89	97	59	43	71	88	96	98	85	68	100	99	81	87	73	93	inhibition [21]: -9.67%; residual activity [22]: 96%; residual activity [23]: 61%; residual activity [24]: 99%; residual activity [25]: 100%; residual activity [26]: 100%; residual activity [27]: 54%; residual activity [28]: 100%; residual activity [29]: 85%; residual activity [30]: 88%; residual activity [31]: 86%; residual activity [32]: 88%; residual activity [33]: 82%; residual activity [34]: 100%; residual activity [35]: 64%
